# Test results as given in patent US10479780B2, “Aminopyrazole derivatives” (Chugai Seiyaku Kabushiki Kaisha, priority 2015, dated 2019).
# Tests used:
# Assay type in all cases: biochemical
# human Src enzyme = target: T1, human Src enzyme (Homo sapiens, UniProt P12931); test: Src enzyme inhibitory activity (time-resolved fluorometry, biotinylated peptide phosphorylation); conditions: read-out: SRC_IC50
# T1 construct: purchased Carna Biosciences, Inc. 08-173
# Procedure, shortened: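 Compounds were tested for blocking tyrosine phosphorylation of a biotinylated peptide substrate by recombinant human Src. Phosphorylated product was quantified by time-resolved fluorometry using europium cryptate and XL665 conjugates, and IC50 was calculated against the compound-free control.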
# human Lck enzyme = target: T2, human Lck enzyme (Homo sapiens, UniProt P06239); test: Lck enzyme inhibitory activity (time-resolved fluorometry, biotinylated peptide phosphorylation); conditions: read-out: LCK_IC50
# T2 construct: purchased Carna Biosciences, Inc. 08-170
# T2 sequence (P06239 whole entry): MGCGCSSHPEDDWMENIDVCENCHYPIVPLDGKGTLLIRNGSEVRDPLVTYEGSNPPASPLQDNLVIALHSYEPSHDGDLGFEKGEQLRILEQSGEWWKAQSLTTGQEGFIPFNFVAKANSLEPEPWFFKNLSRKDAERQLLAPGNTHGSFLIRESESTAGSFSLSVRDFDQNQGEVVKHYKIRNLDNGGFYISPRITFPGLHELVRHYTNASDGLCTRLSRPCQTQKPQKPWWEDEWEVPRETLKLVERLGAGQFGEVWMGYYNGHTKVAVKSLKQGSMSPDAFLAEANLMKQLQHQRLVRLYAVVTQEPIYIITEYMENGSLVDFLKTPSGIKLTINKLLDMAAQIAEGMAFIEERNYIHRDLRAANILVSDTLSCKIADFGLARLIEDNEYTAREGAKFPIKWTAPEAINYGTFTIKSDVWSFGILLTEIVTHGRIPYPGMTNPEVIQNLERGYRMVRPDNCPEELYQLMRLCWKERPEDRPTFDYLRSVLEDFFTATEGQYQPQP
# Procedure, shortened: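 Readout pairs a europium cryptate-labelled anti-phosphotyrosine antibody with XL665-streptavidin, measured by time-resolved fluorescence. IC50 derived from percent inhibition against untreated controls.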
# human Yes1 enzyme = target: T3, human Yes1 enzyme (Homo sapiens, UniProt P07947); test: Yes1 enzyme inhibitory activity (time-resolved fluorometry, biotinylated peptide phosphorylation); conditions: read-out: YES_IC50
# T3 construct: made in house
# T3 sequence (P07947 whole entry): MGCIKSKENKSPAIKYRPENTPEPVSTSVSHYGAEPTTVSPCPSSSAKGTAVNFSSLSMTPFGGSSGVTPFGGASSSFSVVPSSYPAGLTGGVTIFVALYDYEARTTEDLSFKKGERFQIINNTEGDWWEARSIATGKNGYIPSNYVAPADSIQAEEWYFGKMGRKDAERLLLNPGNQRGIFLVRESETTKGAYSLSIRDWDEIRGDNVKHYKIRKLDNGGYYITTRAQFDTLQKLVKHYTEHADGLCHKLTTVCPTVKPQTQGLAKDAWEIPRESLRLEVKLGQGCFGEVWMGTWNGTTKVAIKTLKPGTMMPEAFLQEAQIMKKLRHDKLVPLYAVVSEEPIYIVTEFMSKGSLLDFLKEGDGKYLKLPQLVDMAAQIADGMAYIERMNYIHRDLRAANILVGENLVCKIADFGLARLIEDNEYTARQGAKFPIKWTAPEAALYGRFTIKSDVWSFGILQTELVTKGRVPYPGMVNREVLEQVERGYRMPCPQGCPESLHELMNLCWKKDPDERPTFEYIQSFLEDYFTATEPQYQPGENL
# Procedure, shortened: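 Inhibition was expressed against a compound-free control to give IC50, using TR-FRET read-out (Eu-cryptate anti-pTyr antibody, streptavidin-XL665).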
# T1 sequence (P12931 whole entry): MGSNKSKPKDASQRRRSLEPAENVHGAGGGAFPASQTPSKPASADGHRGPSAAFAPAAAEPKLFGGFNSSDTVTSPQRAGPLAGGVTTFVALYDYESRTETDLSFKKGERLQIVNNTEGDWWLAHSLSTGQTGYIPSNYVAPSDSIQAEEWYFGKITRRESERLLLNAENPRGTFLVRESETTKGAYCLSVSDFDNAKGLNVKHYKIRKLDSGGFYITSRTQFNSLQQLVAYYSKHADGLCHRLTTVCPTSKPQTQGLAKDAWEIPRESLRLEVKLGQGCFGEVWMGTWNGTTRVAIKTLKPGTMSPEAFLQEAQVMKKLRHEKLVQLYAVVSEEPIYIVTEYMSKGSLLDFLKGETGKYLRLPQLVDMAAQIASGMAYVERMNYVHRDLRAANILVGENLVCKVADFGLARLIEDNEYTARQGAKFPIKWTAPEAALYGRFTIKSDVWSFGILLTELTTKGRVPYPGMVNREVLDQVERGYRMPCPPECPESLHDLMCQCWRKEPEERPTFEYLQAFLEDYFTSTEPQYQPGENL
IC50 (human Src enzyme) [nM],IC50 (human Lck enzyme) [nM],IC50 (human Yes1 enzyme) [nM],Compound
65,20,0.84,"Nc1c(C(=O)c2cc3cc(F)c(NS(=O)(=O)CCCF)cc3[nH]2)cnn1-c1c(F)cc(Oc2ccccc2F)cc1F [Example 5-1-027, N-[2-[5-amino-1-[2,6-difluoro-4-(2-fluorophenoxy)phenyl]pyrazole-4-carbonyl]-5-fluoro-1H-indol-6-yl]-3-fluoropropane-1-sulfonamide]"
17,13,0.73,"Cc1cc(Oc2ccccc2F)ccc1-n1ncc(C(=O)c2cc3cc(F)c(NC(=O)C(F)(F)F)cc3[nH]2)c1N [Example 5-1-029, N-[2-[5-amino-1-[4-(2-fluorophenoxy)-2-methylphenyl]pyrazole-4-carbonyl]-5-fluoro-1H-indol-6-yl]-2,2,2-trifluoroacetamide]"
380,130,11,"Cc1cc(Oc2ccccc2F)cc(C)c1-n1ncc(C(=O)c2cc3cc(F)c(NS(C)(=O)=O)cc3[nH]2)c1N [Example 5-1-032, N-[2-[5-amino-1-[4-(2-fluorophenoxy)-2,6-dimethylphenyl]pyrazole-4-carbonyl]-5-fluoro-1H-indol-6-yl]methanesulfonamide]"
400,230,8.4,"Nc1c(C(=O)c2cc3cc(F)c(NS(=O)(=O)CCCF)cc3[nH]2)cnn1-c1c(Cl)cc(Oc2ccccc2F)cc1Cl [Example 5-1-033, N-[2-[5-amino-1-[2,6-dichloro-4-(2-fluorophenoxy)phenyl]pyrazole-4-carbonyl]-5-fluoro-1H-indol-6-yl]-3-fluoropropane-1-sulfonamide]"
6100,2000,120,"Cc1cc(-n2ncc(C(=O)c3cc4cc(F)c(NS(C)(=O)=O)cc4[nH]3)c2N)cnc1Oc1ccccc1F [Example 5-1-039, N-[2-[5-amino-1-[6-(2-fluorophenoxy)-5-methylpyridin-3-yl]pyrazole-4-carbonyl]-5-fluoro-1H-indol-6-yl]methanesulfonamide]"
280,88,13,"Cc1cc(Oc2ccccc2F)cc(C)c1-n1ncc(C(=O)c2cc3cc(F)c(NS(=O)(=O)CCCF)cc3[nH]2)c1N [Example 5-1-040, N-[2-[5-amino-1-[4-(2-fluorophenoxy)-2,6-dimethylphenyl]pyrazole-4-carbonyl]-5-fluoro-1H-indol-6-yl]-3-fluoropropane-1-sulfonamide]"
160,110,7.9,"Cc1cc(Oc2ccc(F)cc2)ncc1-n1ncc(C(=O)c2cc3cc(F)c(NS(=O)(=O)C4CC4)cc3[nH]2)c1N [Example 5-1-046, N-[2-[5-amino-1-[6-(4-fluorophenoxy)-4-methylpyridin-3-yl]pyrazole-4-carbonyl]-5-fluoro-1H-indol-6-yl]cyclopropanesulfonamide]"

# Further lines, the molecule ahead of its results:
Compound,IC50 (human Src enzyme) [nM],IC50 (human Lck enzyme) [nM],IC50 (human Yes1 enzyme) [nM]
"Nc1c(C(=O)c2cc3cc(F)c(NS(=O)(=O)CCCF)cc3[nH]2)cnn1-c1c(Cl)cc(Oc2cccc(F)c2F)cc1Cl [Example 5-1-028, N-[2-[5-amino-1-[2,6-dichloro-4-(2,3-difluorophenoxy)phenyl]pyrazole-4-carbonyl]-5-fluoro-1H-indol-6-yl]-3-fluoropropane-1-sulfanamide]",350,200,13
"CS(=O)(=O)Nc1cc2[nH]c(C(=O)c3cnn(-c4c(F)cc(Oc5cccc(F)c5F)cc4F)c3N)cc2cc1F [Example 5-1-030, N-[2-[5-amino-1-[4-(2,3-difluorophenoxy)-2,6-difluorophenyl]pyrazole-4-carbonyl]-5-fluoro-1H-indol-6-yl]methanesulfonamide]",76,8.7,2.4
"Nc1c(C(=O)c2cc3cc(F)c(NS(=O)(=O)C4CC4)cc3[nH]2)cnn1-c1c(F)cc(Oc2cccc(F)c2F)cc1F [Example 5-1-031, N-[2-[5-amino-1-[4-(2,3-difluorophenoxy)-2,6-difluorophenyl]pyrazole-4-carbonyl]-5-fluoro-1H-indol-6-yl]cyclopropanesulfonamide]",220,34,4.1
"Nc1c(C(=O)c2cc3cc(F)c(NS(=O)(=O)CCCF)cc3[nH]2)cnn1-c1c(F)cc(Oc2cccc(F)c2F)cc1F [Example 5-1-034, N-[2-[5-amino-1-[4-(2,3-difluorophenoxy)-2,6-difluorophenyl]pyrazole-4-carbonyl]-5-fluoro-1H-indol-6-yl]-3-fluoropropane-1-sulfonamide]",180,62,3.5
"Nc1c(C(=O)c2cc3cc(F)c(NS(=O)(=O)CCCF)cc3[nH]2)cnn1-c1ccc(Oc2ncccc2F)cc1F [Example 5-1-035, N-[2-[5-amino-1-[2-fluoro-4-(3-fluoropyridin-2-yl)oxyphenyl]pyrazole-4-carbonyl]-5-fluoro-1H-indol-6-yl]-3-fluoropropane-1-sulfonamide]",85,35,0.68
"Nc1c(C(=O)c2cc3cc(F)c(NS(=O)(=O)CCCF)cc3[nH]2)cnn1-c1ccc(Oc2ncccc2Cl)cc1F [Example 5-1-036, N-[2-[5-amino-1-[4-(3-chloropyridin-2-yl)oxy-2-fluorophenyl]pyrazole-4-carbonyl]-5-fluoro-1H-indol-6-yl]-3-fluoropropane-1-sulfonamide]",140,65,1.5
"Nc1c(C(=O)c2cc3cc(F)c(NS(=O)(=O)CCCF)cc3[nH]2)cnn1-c1ccc(Oc2ncccc2Cl)cc1Cl [Example 5-1-037, N-[2-[5-amino-1-[2-chloro-4-(3-chloropyridin-2-yl)oxyphenyl]pyrazole-4-carbonyl]-5-fluoro-1H-indol-6-yl]-3-fluoropropane-1-sulfonamide]",45,17,0.91
"Cc1cc(Oc2cc(F)cc(F)c2)ncc1-n1ncc(C(=O)c2cc3cc(F)c(NS(C)(=O)=O)cc3[nH]2)c1N [Example 5-1-038, N-[2-[5-amino-1-[6-(3,5-difluorophenoxy)-4-methylpyridin-3-yl]pyrazole-4-carbonyl]-5-fluoro-1H-indol-6-yl]methanesulfonamide]",270,66,16
"Cc1ccccc1Oc1cc(C)c(-n2ncc(C(=O)c3cc4cc(NS(C)(=O)=O)c(F)cc4[nH]3)c2N)cn1 [Example 5-1-047, N-[2-[5-amino-1-[4-methyl-6-(2-methylphenoxy)pyridin-3-yl]pyrazole-4-carbonyl]-6-fluoro-1H-indol-5-yl] methanesulfonamide]",15,5.1,0.87
"Cc1cc(Oc2cccc(Cl)c2)cc(F)c1-n1ncc(C(=O)c2cc3cc(NS(C)(=O)=O)c(F)cc3[nH]2)c1N [Example 5-1-048, N-[2-[5-amino-1-[4-(3-chlorophenoxy)-2-fluoro-6-methylphenyl]pyrazole-4-carbonyl]-6-fluoro-1H-indol-5-yl]methanesulfonamide]",110,6.4,1.6
"Cc1cc(Oc2cccc(F)c2F)ncc1-n1ncc(C(=O)c2cc3cc(NS(C)(=O)=O)c(F)cc3[nH]2)c1N [Example 5-1-049, N-[2-[5-amino-1-[6-(2,3-difluorophenoxy)-4-methylpyridin-3-yl]pyrazole-4-carbonyl]-6-fluoro-1H-indol-5-yl]methanesulfonamide]",70,3.9,1.5
